Values of other authors, collected in patent US20110184379A1, “METHOD AND SYSTEM TO DEFINE PATIENT SPECIFIC THERAPEUTIC REGIMENS BY MEANS OF PHARMACOKINETIC AND PHARMACODYNAMIC TOOLS” (MEDTRONIC, INC., priority 2008, published 2011).
Read-outs that look alike come from different tables or passages of the source.

Columns and labels:
[1] = test system: genotype 1 HCV polymerases
[2] = preliminary review of blinded data, four completed cohorts
HCV [3] = test system: HCV
HCV [4] = details: for viral load reduction: oral
HCV [5] = test system: HCV; remark: listed apart in the source
[6] = test system: chronic hepatitis C virus (HCV) genotype 1; details: for SVR at 24 weeks after the end of treatment (SVR 24): 28-week Boceprevir arm
HCV genotype-1 = details: 14-day course
HCV genotype 1 = details: 5 days of dosing
[7] = test system: Hepatitis C virus replicon
HCV [8] = test system: HCV; remark: listed apart in the source
HCV [9] = test system: HCV; remark: listed apart in the source

Question: Which “inhibition of genotype 1 HCV polymerases” value [1] does the source give for `COC[C@H]1C[C@@](Cn2cccn2)(C(=O)O)N(C(=O)c2ccc(C(C)(C)C)c(OC)c2)[C@H]1c1nccs1` [GSK625433] here?
Answer: highly potent and selective inhibitor

Question: And the “interaction with interferon in vitro” value [1]?
Answer: synergistic

Question: What does the source list for `CC(C)(C)OC(=O)N[C@H]1CCCCC/C=C\[C@@H]2C[C@@]2(C(=O)NS(=O)(=O)C2CC2)NC(=O)[C@@H]2C[C@@H](OC(=O)N3Cc4cccc(F)c4C3)CN2C1=O` [ITMN-191]?
Answer: safety and tolerability (preliminary safety data, doses intended for Phase 1b): well tolerated and safe; serious adverse events (single ascending dose, healthy subjects): no serious adverse events were reported; safety and tolerability [2]: safe and well-tolerated

Question: What does the source list for `[N-]=[N+]=N[C@]1(CO)O[C@@H](n2ccc(N)nc2=O)[C@H](O)[C@@H]1O` [R1626, 4′-azidocytidine]?
Answer: End-of-Treatment Response (HCV [3]; 4 weeks R1626 + Peginterferon Alfa-2a (40 kd) + Ribavirin, then 44 weeks Peginterferon Alfa-2a + Ribavirin): 84%; barrier to resistance (HCV [3]; in vivo): high barrier to resistance; viral load reduction (HCV [4]; 100 mg dose (so in the source)): 1.2 log 10; viral load reduction (HCV [4]; 300 mg dose (so in the source)): 2.6 log 10; viral load reduction (HCV [4]; 4500 mg dose): 3.7 log 10; viral resistance (HCV [4]; human, in vivo): No viral resistance was found; tolerability (HCV [4]; increasing adverse events at the highest dose (4500 mg)): generally well-tolerated

Question: What does the source list for `CC(C)C(=O)OC[C@H]1O[C@@H](n2ccc(N)nc2=O)[C@](C)(F)[C@@H]1OC(=O)C(C)C` [R71278]?
Answer: decrease in HCV RNA (viral load) (HCV [5]; 1,500 mg twice-daily arm): > 99%; antiviral activity across all dosing arms (HCV [5]; in vivo): dose-dependent antiviral activity; safety and tolerability (HCV [5]; in vivo): generally safe and well-tolerated with no serious adverse events

Question: With `CC(C)(C)NC(=O)N[C@H](C(=O)N1C[C@H]2[C@@H]([C@H]1C(=O)NC(CC1CCC1)C(=O)C(N)=O)C2(C)C)C(C)(C)C` (some centres unmarked) [SCH503034] as the compound, how does the “SVR at 24 weeks after the end of treatment (SVR 24)” value ([6]; lead-in) read?
Answer: 56%

Question: And the “SVR at 24 weeks after the end of treatment (SVR 24)” value ([6]; no lead-in)?
Answer: 55%

Question: And the “SVR rate at 12 weeks after the end of treatment (SVR 12)” value ([6]; 48-week regimen, 4 weeks PEGINTRON + REBETOL lead-in before Boceprevir 800 mg TID, ITT)?
Answer: 74%

Question: And the “SVR 12” value ([6]; 48 weeks Boceprevir + PEGIntron + REBETOL from the beginning, no P/R lead-in)?
Answer: 66%

Question: And the “SVR (ITT) in patients with rapid virologic response (RVR)” value ([6]; lead-in, 28-week regimen)?
Answer: 82%

Question: And the “SVR (ITT) in patients with rapid virologic response (RVR)” value ([6]; lead-in, 48 week regimen)?
Answer: 92%

Question: And the “maximum HCV RNA reduction” value (HCV genotype-1; 400 mg group)?
Answer: more than 2 logs

Question: And the safety and tolerability (HCV genotype-1)?
Answer: safe and well-tolerated with no serious adverse events

Question: With `COc1ccc2c(O[C@@H]3C[C@H]4C(=O)N[C@]5(C(=O)NS(=O)(=O)C6CC6)C[C@H]5/C=C\CCCCN(C)C(=O)[C@@H]4C3)cc(-c3nc(C(C)C)cs3)nc2c1C` [TMC435350] as the compound, how does the tolerability (HCV genotype 1) read?
Answer: well tolerated

Question: And the antiviral activity (HCV genotype 1; genotype 1 infected individuals)?
Answer: strong and rapid antiviral activity

Question: What about the appearance of drug-resistance ([7]; combination with interferon) of the same compound?
Answer: suppress the appearance of drug-resistance

Question: What about the RNA reduction ([7]; combination with interferon, replicon model) of the same compound?
Answer: > 4 logs

Question: And the “effect on Hepatitis C virus replication” value ([7]; replicon experiments, via protease inhibition)?
Answer: reduce the amount of Hepatitis C virus replication

Question: For `NC(=O)c1ncn([C@@H]2O[C@H](CO)[C@@H](O)[C@H]2O)n1` [ribavirin, 1-β-D-ribofuranosyl-1H-1,2,4-triazole-3-carboxamide], which efficacy (HCV [8]; monotherapy) is on record?
Answer: negligible efficacy

Question: With interferon-α as the compound, how does the “therapeutic effectiveness of the combination” value (HCV [8]; ribavirin combined with interferon-α, genotype 1 population) read?
Answer: 29%

Question: And the “delay before HCV RNA decline” value (HCV [9]; IFN or IFN plus ribavirin)?
Answer: 7 to 10 h

Question: What about the “fall of HCV RNA in the first phase (1-2 days), on average” value (HCV [9]; genotype 1 infected patients) of the same compound?
Answer: 1-2 logs
